The nature of data set [1]: Plasma protein binding, human plasma. The class given is in vitro ADME. To be noted: human, plasma. In outline: (§1)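 Equilibrium dialysis across 12-14 kDa regenerated cellulose membranes, test article at 2 μM in plasma (pH adjusted to 7.0-8.0), triplicate. Incubated 4 h at 37 °C, 5% CO2, slow shaking. Both chambers quantified by LC-MS/MS.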
The nature of data set [2]: Plasma protein binding, CD-1 mouse plasma. The class given is in vitro ADME. To be noted: CD-1 mouse plasma; read-out: Plasma % Bound, Mu (converted). In outline:
as §1

Data set [3] addresses human recombinant NEP (Homo sapiens, UniProt P08473). Description: NEP enzymatic cleavage assay (MALDI, HPLC). Particulars: for cleavage of the test article: 1 nM NEP, MALDI-TOF MS; for in vitro Assay Data (NEP assay): Table 2. The class given is biochemical. The protocol: In order to test the susceptibility of GFK and MVK linkers to NEP-mediated cleavage, the peptide (Folate-hshta-Lys(MPBA)-Gly-Phe-Lys(DOTA) (SEQ ID NO:6)) was incubated with human recombinant NEP and analyzed the solution for the presence of cleaved adducts. MALDI was utilized to monitor the cleavage of a PCC heterobiligand that contains a NEP protease recognizable sequence (G-F-K). The PCC concentration was constant and the NEP concentration was titrated down from 10 nM to 1 nM, 0.1 nM, 0.01 nM, and no NEP. The NEP-mediated cleaved adduct was identified by mass. 10 μM PCC containing the GFK linker was combined with varying amounts of NEP. […] Below 0.1 nM no cleavage was observed. • Folate-hshta-Lys(MPBA)-Gly-Phe-Lys(DOTA) (SEQ ID NO:6) • Molecular weight 2231.42
The NEP-mediated cleavage was also monitored by HPLC. In agreement with the MALDI spectra, the HPLC chromatograms show depletion of the parent brush-border heterobiligand (retention time 17.1 minutes), dose-dependent on the amount of NEP spiked into the sample (10 nM, 1 nM, 0.1 nM, 0.01 nM, and no NEP). An appearance of a new peak (retention time 16.5 minutes) in concert with the depletion of the starting material is presumed to be the cleaved folate-containing peptide.
In order to test the specificity of NEP, a non-cleavable linker (PEG3) was also assayed.
To reduce the radioactive dose to the kidney, Indi ^177Lu-7327 was constructed to incorporate a GFK linker that is susceptible to cleavage by enzymes found predominately in the kidney's brush border. These enzymes cleave off the radionuclide-chelator complex, which is quickly eliminated by the kidney for excretion in the urine. The zinc metalloprotease neprilysin (NEP) is expressed with high abundance in the kidney. […] To confirm NEP-mediated cleavage of the GFK linker in Indi 7327, the peptide was incubated with recombinant human NEP at 37° C. for 1 h and analyzed by matrix-assisted laser desorption/ionization mass spectrometry (MALDI-MS) for the evolution of cleaved adducts (FIG. 42). […] The expected cleaved adduct (mass: 1283.16 m/z) appears in the samples containing 10, 1.0, and 0.1 nM NEP. […] Below 0.1 nM NEP, no cleavage was observed. In addition to confirming the selectivity of NEP for the GFK linker, it is also important to note that the remaining portions of the Indi 7327 were impervious to the enzyme.

A short description of data set [4]: Plasma stability, human plasma.
Description: (§2) Plasma was thawed in a 37° C. water bath. Residual clots were removed via centrifugation at 4000 rpm for 5 minutes. The pH of the plasma was adjusted to 7.4 if required. Test articles were diluted to 100 μM by diluting a 1 mM working solution (in DMSO) with 45% methanol in water. To 98 μL of plasma was added 2 μL of the 100 μM solution, resulting in 2 μM final concentration of the test article. Samples were incubated at 37° C. in a water bath. At the indicated time points (0, 10, 30, 60, 120 minutes) 100 μL of 4% H3PO4 was added followed by 800 μL of stop solution (200 ng/mL tolbutamide and 200 ng/mL labetalol in 100% acetonitrile). The samples were centrifuged and the plasma protein-free supernatant (100 μL) was subjected to LC-MS/MS analysis.
Data set [5] can be described thus: Plasma stability, CD-1 mouse plasma.
Description: as §2
Data set [6] deals with T1, FOLR1 (Homo sapiens, UniProt P15328). Description: ELISA assay of FOLR1 binding. The source says: FIG. 5 is a diagram of ELISA assay of FOLR1 binding of heterobiligands.
On the technique in general: ELISA stands for enzyme-linked immunosorbent assay.

For data set [7], the target named is mouse recombinant FOLR1 (rMuFOLR1) (Mus musculus, UniProt P35846). Description: ELISA cross reactivity with mouse recombinant FOLR1. The data set is classed as binding. Particulars: cross reactivity experiment. An excerpt: Further evaluation of the folate-hshta (SEQ ID NO:6) Nterm heterobiligand depended on cross reactivity with mouse recombinant FOLR1 (rMuFOLR1). The heterobiligand binds to both species' variants of FOLR1 with high affinity. This observation was expected given the high homology between the two variants (approximately 92%).

The test system of data set [8] is OVCAR3 FOLR1+ cells (PC-3 FOLR1− cells as negative line). Description: Flow cytometry binding to FOLR1 (+) and FOLR1 (−) cell lines. The class given is cell-based, human. Particulars: OVCAR3 vs PC-3, flow cytometry. The protocol:
Both the kyeet (SEQ ID NO:9) and hshta (SEQ ID NO:6)-derived biligands were tested by flow cytometry for binding to FOLR1 (+) and FOLR1 (−) cell lines (FIGS. 6 and 7). The human ovarian adenocarcinoma-derived cell line OVCAR3 has robust FOLR1 expression and was selected as the FOLR1 (+) cell line. The human prostate adenocarcinoma-derived cell line PC-3 was selected as a FOLR1 (−) cell line.
For orientation: In flow cytometry, cells or beads pass a laser one at a time.

For data set [9], the target named is T1, FOLR1. Description: Folic acid competition ELISA. The class given is binding. The procedure: A competition experiment was conducted to further understand the binding kinetics of the lead heterobiligand (folate-hshta (SEQ ID NO:6) Nterm heterobiligand).
Data set [10] concerns OVCAR3 cells. Description: Competition at the cellular level with exogenous folic acid (flow cytometry). The data set is classed as cell-based, human. An excerpt: Competition at the cellular level was also probed.
Data set [11] relates to OVCAR3 cells. Description: Cell penetration / internalization assays (acid wash flow cytometry, fluorescence microscopy). The data set is classed as cell-based, human. The protocol: FIG. 10 is a diagram of an assay for assessing cell internalization FOLR1 heterobiligands.
The folate-hshta (SEQ ID NO:6) Nterm heterobiligand was also evaluated in cell penetration imaging assays (FIG. 10). OVCAR3 and PC-3 cells were incubated with the test article at 37° C. for 1 hour. Flow cytometry analysis of the resulting treated cells indicated strong binding to FOLR1 (+) cells. To understand the proportion bound to the surface but not internalized, the cells were briefly washed with acid to liberate the non-internalized peptide.
To further understand intracellular trafficking of the Nterm heterobiligand, these dye-labeled compounds were imaged by fluorescence microscopy. The cells were counterstained with BioTracker 490, which stains membranes, and Rab5a+, an endosomal stain. […] Low levels of DyLight650 was detected within PC-3 (FOLR1−) cells. Taken together, internalization of the heterobiligand appears to be receptor driven and selective for FOLR1 (+) cells.

For data set [12] the following is noted: human plasma.
Description: as §2
For data set [13] the following is noted: human plasma. The source holds these as a separate data set.
Description: as §2
For data set [14] the following is noted: mouse.
Description: as §2
Data set [15] addresses human serum albumin (Homo sapiens, UniProt P02768). Particulars: read-out: affinity for human serum albumin; cited from earlier work.
[16] abbreviates: human plasma, read-out: Plasma % Bound, Hu (converted).

Where two headings read alike, the source gives them in different places. Starred links: 1 amine or outer side, 2 acyl side, 3 side chain; linkers in the order of their positions; H or OH if unused. Positions of bridges follow the written chain, without caps; N, C: chain ends. Non-standard residues stand in square brackets, D forms with d. Residues, ends and D or L forms follow the SMILES beside them. Triazole bridges read from a SMILES are 1,4-linked. *: point of attachment. DOTA = O=C(O)CN1CCN(CC(=O)O)CCN(CC(=O)*)CCN(CC(=O)O)CC1; Pteroyl = Nc1nc2ncc(CNc3ccc(C(=O)*)cc3)nc2c(=O)[nH]1; Biotin = O=C1N[C@H]2[C@H](CS[C@H]2CCCCC(=O)*)N1; Butanoyl(4-(4-I-phenyl)) = O=C(CCCc1ccc(I)cc1)*; PEG10 = NCCOCCOCCOCCOCCOCCOCCOCCOCCOCCOCCC(=O)O; Lys(N3) = [N-]=[N+]=NCCCC[C@H](N)C(=O)O; γGlu = O=C(O)[C@H](CCC(=O)[*:2])N[*:1]; Pra = C#CC[C@H](N)C(=O)O

Sequence of human recombinant NEP (P08473 whole entry): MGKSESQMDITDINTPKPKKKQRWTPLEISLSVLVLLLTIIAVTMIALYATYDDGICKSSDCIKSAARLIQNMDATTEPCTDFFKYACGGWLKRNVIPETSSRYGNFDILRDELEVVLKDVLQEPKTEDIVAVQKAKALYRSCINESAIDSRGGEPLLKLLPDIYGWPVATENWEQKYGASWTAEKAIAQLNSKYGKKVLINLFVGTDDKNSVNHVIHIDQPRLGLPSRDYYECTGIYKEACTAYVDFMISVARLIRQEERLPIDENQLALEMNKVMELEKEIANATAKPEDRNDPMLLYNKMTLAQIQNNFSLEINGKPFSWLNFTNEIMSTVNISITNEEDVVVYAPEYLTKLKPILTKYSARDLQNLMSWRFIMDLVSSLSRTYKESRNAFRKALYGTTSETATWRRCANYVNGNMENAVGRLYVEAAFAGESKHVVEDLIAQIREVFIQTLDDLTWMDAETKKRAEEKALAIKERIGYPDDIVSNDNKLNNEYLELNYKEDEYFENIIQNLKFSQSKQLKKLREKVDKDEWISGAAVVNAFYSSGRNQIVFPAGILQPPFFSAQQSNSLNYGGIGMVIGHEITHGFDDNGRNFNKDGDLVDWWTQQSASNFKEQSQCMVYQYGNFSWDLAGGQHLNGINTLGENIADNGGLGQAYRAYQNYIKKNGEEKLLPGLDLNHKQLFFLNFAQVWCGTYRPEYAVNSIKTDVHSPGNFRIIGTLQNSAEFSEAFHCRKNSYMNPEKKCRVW
T1 sequence (P15328 25-234): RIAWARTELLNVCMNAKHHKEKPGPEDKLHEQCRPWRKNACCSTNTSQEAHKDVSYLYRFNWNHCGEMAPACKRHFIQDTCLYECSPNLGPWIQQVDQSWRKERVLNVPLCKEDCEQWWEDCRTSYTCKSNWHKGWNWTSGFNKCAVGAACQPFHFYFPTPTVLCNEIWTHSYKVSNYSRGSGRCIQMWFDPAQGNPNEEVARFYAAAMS
Sequence of mouse recombinant FOLR1 (rMuFOLR1) (P35846 25-232): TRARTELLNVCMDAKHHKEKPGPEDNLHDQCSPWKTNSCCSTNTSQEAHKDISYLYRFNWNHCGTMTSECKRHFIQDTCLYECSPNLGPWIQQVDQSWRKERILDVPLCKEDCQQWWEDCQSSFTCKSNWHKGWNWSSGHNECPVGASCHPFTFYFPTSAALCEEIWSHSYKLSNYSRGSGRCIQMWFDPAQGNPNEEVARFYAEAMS

By half-life is commonly meant the time in which the quantity being followed falls by half. As for `C[C@H](O)[C@H]1NC(=O)[C@@H](Cc2c[nH]cn2)NC(=O)[C@@H](CO)NC(=O)[C@@H](Cc2c[nH]cn2)NC(=O)[C@@H](NC(=O)CC[C@H](NC(=O)c2ccc(NCc3cnc4nc(N)[nH]c(=O)c4n3)cc2)C(=O)O)Cc2cn(nn2)CCCC[C@@H](C(=O)N[C@@H](CCCCNC(=O)CCCc2ccc(I)cc2)C(=O)NCC(=O)N[C@@H](Cc2ccccc2)C(=O)N[C@@H](CCCCNC(=O)CN2CCN(CC(=O)O)CCN(CC(=O)O)CCN(CC(=O)O)CC2)C(=O)O)NC(=O)[C@@H](C)NC1=O` [Compound #1307, folate-hshta-Lys(IPBA)-Gly-Phe-Lys(DOTA)] ({Pteroyl-γGlu}-[Pra][dH][dS][dH][dT][dA][Lys(N3)]K(Butanoyl(4-(4-I-phenyl)))GFK(DOTA)-OH; triazole 1-7), the fraction unbound in [1] (setting [16]) is 0.005; in data set [2], 0.004. Further, the “cleavage of the test article” value in data set [3] is listed as “complete”. Besides, the “in vitro Assay Data (NEP assay)” value in data set [3] is “Cleavage of -G-F-K-”. In addition, the half-life in [4] and in data set [5] was > 4.82 h each time.

In general, EC50 refers to the concentration giving half of the maximal effect. For `C[C@H](O)[C@H]1NC(=O)[C@@H](Cc2c[nH]cn2)NC(=O)[C@@H](CO)NC(=O)[C@@H](Cc2c[nH]cn2)NC(=O)[C@@H](NC(=O)CC[C@H](NC(=O)c2ccc(NCc3cnc4nc(N)[nH]c(=O)c4n3)cc2)C(=O)O)Cc2cn(nn2)CCCC[C@@H](C(=O)NCCOCCOCCOCCOCCOCCOCCOCCOCCOCCOCCC(=O)NCCOCCOCCOCCOCCOCCOCCOCCOCCOCCOCCC(=O)N[C@@H](CCCCNC(=O)CCCC[C@@H]2SC[C@@H]3NC(=O)N[C@@H]32)C(N)=O)NC(=O)[C@@H](C)NC1=O` [Folate-hshta Nterm, Folate-hshta-PEG10-PEG10-K(Biotin)] ({Pteroyl-γGlu}-[Pra][dH][dS][dH][dT][dA][Lys(N3)][PEG10][PEG10]K(Biotin)-NH2; triazole 1-7), in data set [6] (ELISA), the “greater affinity than folate itself” value is given as ~30 fold. The EC50 in data set [6] (biotin-labeled constructs with MPBA or DOTA tag, read-out: EC50) stood at 0.065 nM; in [6] (cross reactivity experiment, read-out: Ec50, Human FOLR1), 0.35 nM; in [7], 0.33 nM. Moreover, the “binding selectivity for FOLR1 (+) cells over FOLR1 (−) cells” value in [8] is “high selectivity”. For the same molecule, the “binding affinity of the heterobiligand with folic acid doped in” value in [9] (folic acid from 0 to 500 nM) is “virtually unchanged”. Moreover, in [9] (folic acid greater than 500 nM), the “binding of the heterobiligand with folic acid doped in” value was “partially compete away”. Besides, the figures for the “percentage of OVCAR3 cells binding” value in data set [10] (0.1 μg/mL folate) and in [10] (no folate) were 57% and 76.6%, respectively. In addition, the “percentage of positively stained cells” value was 73.4% in data set [11] (OVCAR3, 37° C. 1 hour, before acid treatment) and 54.2% in data set [11] (OVCAR3, following acid treatment).

On to `CSCC[C@H](NC(=O)[C@H](CCCCNC(=O)CCCc1ccc(I)cc1)NC(=O)[C@@H]1CCCCn2cc(nn2)C[C@H](NC(=O)CC[C@H](NC(=O)c2ccc(NCc3cnc4nc(N)[nH]c(=O)c4n3)cc2)C(=O)O)C(=O)N[C@H](Cc2c[nH]cn2)C(=O)N[C@H](CO)C(=O)N[C@H](Cc2c[nH]cn2)C(=O)N[C@H]([C@H](C)O)C(=O)N[C@H](C)C(=O)N1)C(=O)N[C@H](C(=O)N[C@@H](CCCCNC(=O)CN1CCN(CC(=O)O)CCN(CC(=O)O)CCN(CC(=O)O)CC1)C(=O)O)C(C)C` [compound 1306, folate-hshta-Lys(IPBA)-M-V-Lys(DOTA)] ({Pteroyl-γGlu}-[Pra][dH][dS][dH][dT][dA][Lys(N3)]K(Butanoyl(4-(4-I-phenyl)))MVK(DOTA)-OH; triazole 1-7), for which the fraction unbound in [1] (setting [16]) is 0.0265; in [1] (species not given, read-out: bound to plasma (converted)), ~0.03; in data set [2], 0.0288. For the same molecule, in data set [3], the “cleavage of the test article” value is given as “substantial”. In addition, in data set [3], the “in vitro Assay Data (NEP assay)” value is given as “Cleavage of -M-V-K-”. Besides, the half-life in data set [4] and in data set [5] was > 4.82 h each time.

Consider `C[C@H](O)[C@H]1NC(=O)[C@@H](Cc2cnc[nH]2)NC(=O)[C@@H](CO)NC(=O)[C@@H](Cc2cnc[nH]2)NC(=O)[C@@H](NC(=O)CC[C@H](NC(=O)c2ccc(NCc3cnc4nc(N)[nH]c(=O)c4n3)cc2)C(=O)O)Cc2cn(nn2)CCCC[C@@H](C(=O)NCC(=O)N[C@@H](Cc2ccccc2)C(=O)N[C@@H](CCCCNC(=O)CN2CCN(CC(=O)O)CCN(CC(=O)O)CCN(CC(=O)O)CC2)C(=O)O)NC(=O)[C@@H](C)NC1=O` [compound 7327, folate-hshta-Gly-Phe-Lys(DOTA)] ({Pteroyl-γGlu}-[Pra][dH][dS][dH][dT][dA][Lys(N3)]GFK(DOTA)-OH; triazole 1-7), for which the half-life in [12] was > 115 h. In [13], the “Plasma Stability (t 1/2), Hu” value is on record as “Hu: >6937.7 min”. In data set [14], the “Plasma Stability (t 1/2), Mu” value is “Mu: >6937.7 min”.

With “GI48-GA: albumin-binding fragment of protein G from Streptococcus strain GI48, SEQ ID NO:33 (LAEAKVLANRELDKYGVSDYYKNLINNAKTVEGVKALIDEILAA)”, the Kd in [15] was 1 nM.

The values are drawn from patent US11766414B2, “Compositions, delivery systems, and methods useful in tumor therapy” (Indi Molecular, Inc., priority 2020, dated 2023).
